Measured values published in publication PMC6480038, “In Vitro and In Silico Acetylcholinesterase Inhibitory Activity of Thalictricavine and Canadine and Their Predicted Penetration across the Blood-Brain Barrier” (Molecules, 2019).

Key:
[1] = target: T1, human recombinant acetylcholinesterase (hAChE) (Homo sapiens, UniProt P22303); test: biochemical; details: for SI (selectivity index for hAChE): ratio IC50 hBChE / IC50 hAChE; for IC50: recombinant hAChE, ATCh substrate, pH 7.4, 37 °C, mean ± SEM of three measurements
T1 construct: purchased Sigma-Aldrich (Prague, Czech Republic)
T1 sequence (P22303 32-614): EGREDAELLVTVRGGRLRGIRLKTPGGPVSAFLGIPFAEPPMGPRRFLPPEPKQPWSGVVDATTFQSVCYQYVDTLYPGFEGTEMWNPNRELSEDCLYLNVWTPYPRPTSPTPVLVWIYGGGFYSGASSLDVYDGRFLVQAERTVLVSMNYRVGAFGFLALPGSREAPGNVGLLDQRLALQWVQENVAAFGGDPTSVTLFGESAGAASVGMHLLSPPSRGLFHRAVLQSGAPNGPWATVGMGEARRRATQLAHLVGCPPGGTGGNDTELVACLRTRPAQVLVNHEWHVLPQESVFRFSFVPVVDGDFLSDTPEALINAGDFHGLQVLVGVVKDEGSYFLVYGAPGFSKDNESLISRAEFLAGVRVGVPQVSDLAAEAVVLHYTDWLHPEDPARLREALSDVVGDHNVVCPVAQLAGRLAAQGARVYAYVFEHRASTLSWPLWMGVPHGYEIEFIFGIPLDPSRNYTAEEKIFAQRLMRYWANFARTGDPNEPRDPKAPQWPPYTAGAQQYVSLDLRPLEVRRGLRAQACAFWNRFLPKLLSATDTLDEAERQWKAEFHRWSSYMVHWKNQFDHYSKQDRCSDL
Text: (§1) Human recombinant acetylcholinesterase (hAChE; EC 3.1.1.7), human plasma butyrylcholinesterase (hBChE; EC 3.1.1.8), 5,5′-dithiobis(2-nitrobenzoic acid) (Ellman’s reagent, DTNB), phosphate buffer (PB, pH 7.4), dimethyl sulfoxide (DMSO), acetylthiocholine (ATCh), and butyrylthiocholine (BTCh) were purchased from Sigma-Aldrich (Prague, Czech Republic). Polystyrene Nunc 96-well microplates with flat bottom shape (ThermoFisher Scientific, Waltham, MA, USA) were utilized for measuring purposes of cholinesterase assays and the kinetic inhibition study.
(§2) The hAChE and hBChE inhibitory activity of the tested compounds was determined using a modified Ellman’s method. All the assays were carried out in 0.1 M KH2PO4/K2HPO4 buffer, pH 7.4. Enzyme solutions were prepared at an activity of 2.0 units/mL in 2 mL aliquots. The assay medium ([…]) consisted of 40 µL of 0.1 M phosphate buffer (pH 7.4), 20 µL of 0.01 M DTNB, 10 µL of enzyme, and 20 µL of 0.01 M substrate (ATCh iodide solution). […] The reaction started by addition of 20 µL of the substrate (ATCh for hAChE, BTCh for hBChE). […] Each concentration was assayed in triplicate.

[2] = target: T2, human plasma butyrylcholinesterase (hBChE) (Homo sapiens, UniProt P06276); test: hBChE inhibition, modified Ellman's method; assay type: biochemical; details: BTCh substrate, pH 7.4, 37 °C, mean ± SEM of three measurements
T2 construct: Recombinant hAChE and plasma hBChE were used as sources of cholinesterases; purchased Sigma-Aldrich (Prague, Czech Republic); host or cells: human plasma
T2 sequence (P06276 29-602): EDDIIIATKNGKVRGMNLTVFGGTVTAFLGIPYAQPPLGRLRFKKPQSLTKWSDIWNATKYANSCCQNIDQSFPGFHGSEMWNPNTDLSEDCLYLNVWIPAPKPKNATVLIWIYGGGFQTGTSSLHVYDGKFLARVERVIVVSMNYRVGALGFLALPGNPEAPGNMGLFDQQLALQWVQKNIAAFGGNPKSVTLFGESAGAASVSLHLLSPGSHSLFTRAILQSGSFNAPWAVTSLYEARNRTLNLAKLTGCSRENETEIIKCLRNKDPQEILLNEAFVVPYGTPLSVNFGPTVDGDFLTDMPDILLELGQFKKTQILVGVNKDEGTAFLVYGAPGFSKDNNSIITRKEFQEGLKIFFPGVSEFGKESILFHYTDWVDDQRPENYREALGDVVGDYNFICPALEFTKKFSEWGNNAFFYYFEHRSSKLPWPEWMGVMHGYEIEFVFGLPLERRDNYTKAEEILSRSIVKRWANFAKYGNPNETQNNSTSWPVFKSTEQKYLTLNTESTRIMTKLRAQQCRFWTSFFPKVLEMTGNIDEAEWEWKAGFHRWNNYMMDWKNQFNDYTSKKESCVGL
Text: as §1, §2

recombinant hAChE = target: T3, recombinant hAChE (Homo sapiens, UniProt P22303); test: Kinetic study of hAChE inhibition; assay type: biochemical; details: for type of inhibition: nonlinear regression with sum-of-squares F-test, p < 0.05; for Ki: nonlinear regression, ATCh 156–1250 µM
T3 construct: purchased Sigma-Aldrich (Prague, Czech Republic)
T3 sequence (P22303 32-614): as the sequence (P22303 32-614) above
Text: The mode of interaction of the hAChE inhibition was elucidated for 1 and 2 using a kinetic study in order to gain information about the mode of inhibition and the binding site of the isolated alkaloids. Recombinant hAChE was used in this kinetic analysis of 1 and 2. […] The type of the inhibition mechanism was clarified by a nonlinear regression analysis. The results computed for each model type of inhibition (competitive, non-competitive, uncompetitive and mixed) were compared with the sum-of-squares F-test.
The kinetic study of hAChE inhibition was performed by using Ellman’s method (described above). […] Reactions were performed in triplicate. Vmax and Km values, respectively, of the Michaelis-Menten kinetics and Ki were calculated by non-linear regression from the substrate velocity curves. Linear regression was used for calculation of Lineweaver-Burk plots. All calculations were performed using the GraphPad Prism software.

[3] = Table S1, predictive penetration into the CNS
in vitro = details: pig, PAMPA, pH 7.4
[4] = system: AChE (red blood cell ghosts); details: earlier screening, 25 °C, red blood cell ghosts as AChE source; cited from earlier work
[5] = system: selected human carcinoma and non-carcinoma cells; details: read-out: cytotoxicity IC50; cited from earlier work

SMILES | SI (selectivity index for hAChE) [1] | IC50 [1] | IC50 [2] | type of inhibition (recombinant hAChE) | Ki (recombinant hAChE) | PAMPA-BBB prediction [3] | Papp (in vitro) | IC50 value for AChE [4] | IC50 [5]
COc1ccc2c(c1OC)CN1CCc3cc4c(cc3[C@H]1C2)OCO4 [Compound 2, (+)-canadine] | >143 | 700 ± 70 nM | > 100000 nM | competitive | 129 ± 44 nM | CNS + | 5 ± 0.3 ×10⁻⁶ cm/s | low micromolar range | > 10000 nM
Cn1c(=O)c2c(ncn2C)n(C)c1=O [caffeine, reference compound] |  |  |  |  |  |  | 0.3 ×10⁻⁶ cm/s |  | 
COc1ccc2c(c1OC)CN1CCc3cc4c(cc3[C@H]1[C@H]2C)OCO4 [Compound 1, (+)-thalictricavine] | >263 | 380 ± 50 nM | > 100000 nM | competitive | 174 ± 56.9 nM |  | 2.5 ± 0.1 ×10⁻⁶ cm/s |  | > 10000 nM
